Reference: patent US20030166531A1, “Methods for modulating an immune response by modulating the interaction between CTLA4 and PP2A” (Genetics Institute, Inc., priority 2001, published 2003)

Columns and labels:
[1] = accumulates in filter feeding organisms such as shellfish; cited from earlier work
[2] = target: mutant K-less CTLA4 (K152A/K155A/K156A) expressed in doxycycline-induced Jurkat T cells (UniProt P16410); assay: cell-based or functional assay
IL-2 gene transcription = assay: Luciferase reporter assay under IL-2 promoter/enhancer in CTLA4-transfected Jurkat T cells stimulated with SEE and APCs; assay type: cell-based; details: doxycycline-induced Jurkat cells, TCR-CTLA4 co-ligation with SEE and APCs, at maximal RLU response
Protocol: FIGS. 2A-2B depict the inhibition of IL-2 promoter/enhancer controlled luciferase reporter gene transcription by wild type (FIG. 2A) or K-less (FIG. 2B) CTLA4 molecules. Wild type or K-less CTLA4-transfected T cells were stimulated for 4 hours with antigen presenting cells and increasing concentrations of SEE antigen in the absence (upper data points) or presence (lower data points) of doxycycline (5 μg/ml). Cells were lysed and a luciferase assay was performed.
The panel of Jurkat T cells transfected with a regulatable, doxycycline sensitive CTLA4 cDNA has been previously described (Carreno, B. M. et al. (2000) J. Immunol. 165:1352-1356; Baroja, M. L. et al. (2000) J. Immunol. 164:49-55). A luciferase reporter cDNA under the control of the interleukin-2 promoter and enhancer elements was transfected in these cells, and clones isolated after limiting dilution were used for these experiments. A 0.45 lymphoblastoid B cell line that expresses HLA-DR1 and B7.1 was also used. Both cell lines were cultured under standard conditions.
Doxycycline treated Jurkat T cells (0.25×10^6 cells/group) were stimulated for 4 hours with 0.45 lymphoblastoid B cells (ratio 2:1) preincubated overnight with different concentrations of SEE. Luciferase assays were performed using the Promega Luciferase Assay System (Promega, Madison, Wis.). […]

UniProt P16410, sequence (P16410 36-223, stated change not applied): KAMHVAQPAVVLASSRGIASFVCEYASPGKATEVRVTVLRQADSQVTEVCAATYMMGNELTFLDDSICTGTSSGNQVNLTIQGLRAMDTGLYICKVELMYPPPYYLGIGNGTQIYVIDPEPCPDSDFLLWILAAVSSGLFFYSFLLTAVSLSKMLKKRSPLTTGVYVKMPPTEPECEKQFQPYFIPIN

C=C1[C@@H](O)[C@@H]2O[C@]3(CC[C@H](/C=C/[C@@H](C)[C@@H]4CC(C)=C[C@@]5(O[C@H](C[C@@](C)(O)C(=O)O)CC[C@H]5O)O4)O3)CC[C@H]2O[C@@H]1[C@@H](O)C[C@H](C)[C@H]1O[C@@]2(CCCCO2)CC[C@H]1C [okadaic acid]
toxicity when consumed by humans [1]: causes diarrhetic shellfish poisoning

endogenous PP2AA (65 kD regulatory subunit of PP2A) of Jurkat T cells (from UniProt P30153 2-589)
inhibition of luciferase activity (IL-2 promoter/enhancer reporter) upon TCR-CTLA4 co-ligation [2]: 70 to 80%

wild type CTLA4: wild type CTLA4 expressed from a doxycycline-regulatable cDNA in transfected Jurkat T cells
inhibition of luciferase activity (IL-2 promoter/enhancer reporter) (IL-2 gene transcription): 35-55%
